Data on six compounds can be found in EP3130590A1, “AROMATIC AZA COMPOUNDS AS VR1/TRPV1 LIGANDS” (Grünenthal GmbH, priority 2015, dated 2017).

The assay addresses T1, vanilloid receptor 1 (VR1/TRPV1 receptor) (Homo sapiens, UniProt Q8NER1).
T1 construct: expressed in transfected cells; host or cells: CHO K1
Briefly: Functional testing on the vanilloid receptor 1 (FLIPR Ca2+ influx assay, capsaicin stimulation). It counts as cell-based. The conditions noted are these: capsaicin (CAP) 100 nM; for inhibition at 1 µM: @ 1 µM test compound; for inhibition at 1 µM / inhibition at 5 µM: relative to maximum achievable inhibition with 10 µM capsazepine, read-out: inhibition (in %), column (f) Ki human [nM] CAP; for inhibition at 5 µM: @ 5 µM test compound. As for the experimental part:
Furthermore, preference may be given to compounds according to the invention that cause a 50 per cent displacement of capsaicin, which is present at a concentration of 100 nM, in a FLIPR assay with CHO K1 cells which were transfected with the human VR1 gene at a concentration of less than 6,000 nM, preferably less than 5,000 nM, more preferably less that 3,000 nM or less than 1,000 nM and particularly preferably less than 300 nM, most particularly preferably less than 100 nM, even more preferably less than 75 nM, additionally preferably less than 50 nM, most preferably less than 10 nM.
In the process, the Ca^2+ influx is quantified in the FLIPR assay with the aid of a Ca^2+-sensitive dye (type Fluo-4, Molecular Probes Europe BV, Leiden, the Netherlands) in a fluorescent imaging plate reader (FLIPR, Molecular Devices, Sunnyvale, USA), as described hereinafter. […]
The FLIPR protocol consists of 2 substance additions. First the compounds to be tested (10 µM) are pipetted onto the cells and the Ca^2+ influx is compared with the control (capsaicin 10 µM). This provides the result in % activation based on the Ca^2+ signal after the addition of 10 µM of capsaicin (CP). After 5 min incubation, 100 nM of capsaicin are applied and the Ca^2+ influx is also determined. Desensitising agonists and antagonists lead to suppression of the Ca^2+ influx. The % inhibition is calculated compared to the maximum achievable inhibition with 10 µM of capsazepine.
Triple analyses (n=3) are carried out and repeated in at least 3 independent experiments (N=4). Starting from the percentage displacement caused by different concentrations of the compounds to be tested of general formula I, IC50 inhibitory concentrations which cause a 50% displacement of capsaicin were calculated.
Ki values for the test substances were obtained by conversion by means of the Cheng-Prusoff equation (Cheng, Prusoff; Biochem. Pharmacol. 22, 3099-3108, 1973).
The affinity of selected compounds according to the invention for the vanilloid receptor 1 (VR1/TRPV1 receptor) was determined as described hereinbefore.
The value after the "@"symbol indicates the concentration at which the indicated inhibition (in %) was respectively determined.

Where [1] appears, read: functional (f), Ki from IC50 by Cheng-Prusoff equation, "ne" = did not show any effect in this assay.

Each structure is given as a SMILES string.

T1 sequence (Q8NER1 whole entry): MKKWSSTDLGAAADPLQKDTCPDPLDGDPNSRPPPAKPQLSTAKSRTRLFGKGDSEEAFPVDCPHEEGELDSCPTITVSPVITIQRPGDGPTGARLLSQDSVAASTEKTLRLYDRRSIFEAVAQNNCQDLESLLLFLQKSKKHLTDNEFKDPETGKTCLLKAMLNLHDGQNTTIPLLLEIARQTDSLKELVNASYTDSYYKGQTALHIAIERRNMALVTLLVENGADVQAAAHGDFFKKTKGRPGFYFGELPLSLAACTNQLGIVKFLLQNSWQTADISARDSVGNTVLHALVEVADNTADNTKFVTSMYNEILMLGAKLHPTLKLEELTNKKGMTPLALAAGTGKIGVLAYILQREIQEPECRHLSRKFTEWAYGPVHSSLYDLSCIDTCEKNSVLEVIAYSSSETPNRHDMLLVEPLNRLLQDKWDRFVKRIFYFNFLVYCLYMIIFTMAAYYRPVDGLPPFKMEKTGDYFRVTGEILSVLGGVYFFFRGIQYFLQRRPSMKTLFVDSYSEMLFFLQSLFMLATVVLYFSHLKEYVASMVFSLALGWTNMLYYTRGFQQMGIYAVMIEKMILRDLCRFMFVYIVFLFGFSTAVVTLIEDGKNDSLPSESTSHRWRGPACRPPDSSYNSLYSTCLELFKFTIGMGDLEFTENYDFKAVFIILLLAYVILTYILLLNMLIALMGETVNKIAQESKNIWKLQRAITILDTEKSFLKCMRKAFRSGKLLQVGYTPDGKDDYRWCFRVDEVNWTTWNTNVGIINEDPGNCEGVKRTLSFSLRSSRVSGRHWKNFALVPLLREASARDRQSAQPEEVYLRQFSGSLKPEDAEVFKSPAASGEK

Take `CC1CCN(c2nc(C(F)(F)F)ccc2CNC(=O)NC2CCc3ccccc32)CC1` (stereo not drawn) [compound 1, 1-(2,3-dihydro-1H-inden-1-yl)-3-((2-(4-methylpiperidin-1-yl)-6-(trifluoromethyl)pyridin-3-yl)methyl)urea]: the “(f) Ki human [nM] CAP” value under setting [1] is “ne”.

Consider `CC1CCN(c2nc(C(F)(F)F)ccc2CNC(=O)NC2Cc3ccccc3C2)CC1` [compound 3, 1-(2,3-dihydro-1H-inden-2-yl)-3-((2-(4-methylpiperidin-1-yl)-6-(trifluoromethyl)pyridin-3-yl)methyl)urea], for which the inhibition at 1 µM was 0% and the inhibition at 5 µM came out at 89%.

Under setting [1], `CC1CCN(c2nc(C(F)(F)F)ccc2CNC(=O)NC2CCCc3ccc(O)cc32)CC1` (stereo not drawn) [compound 4, 1-(7-hydroxy-1,2,3,4-tetrahydronaphthalen-1-yl)-3-((2-(4-methylpiperidin-1-yl)-6-(trifluoromethyl)pyridin-3-yl)methyl)urea] returned a Ki of 6.1 nM.

As to `CC1CCN(c2nc(C(F)(F)F)ccc2CNC(=O)NC2CCCc3c2cnn3C)CC1` (stereo not drawn) [compound 5, 1-(1-methyl-4,5,6,7-tetrahydro-1H-indazol-4-yl)-3-((2-(4-methylpiperidin-1-yl)-6-(trifluoromethyl)pyridin-3-yl)methyl)urea], the inhibition at 1 µM was 0% and the inhibition at 5 µM is 27%.

With `CC1CCN(c2nc(C(F)(F)F)ccc2CNC(=O)NC2CCCc3ccccc32)CC1` (stereo not drawn) [compound 2, 1-((2-(4-methylpiperidin-1-yl)-6-(trifluoromethyl)pyridin-3-yl)methyl)-3-(1,2,3,4-tetrahydronaphthalen-1-yl)urea], the inhibition at 1 µM is 0% and the inhibition at 5 µM worked out at 36%.

For the compound `CC1CCN(c2nc(C(F)(F)F)ccc2CNC(=O)C(C)C2CCCc3ccc(O)cc32)CC1` (stereo not drawn) [comp. no. 6, 2-(7-hydroxy-1,2,3,4-tetrahydronaphthalen-1-yl)-N-((2-(4-methylpiperidin-1-yl)-6-(trifluoromethyl)pyridin-3-yl)methyl)propanamide], affinity under setting [1] was put at a Ki of 28.6 nM.

As usually defined, the inhibition is the drop in the measured response relative to a control, in per cent. A word on the Ki: it is the equilibrium dissociation constant of an inhibitor or competing ligand from its target. The low end stands for higher affinity, the high end for lower affinity.
